{
  "source": "paper PMC4450297",
  "about": "“Screening Active Compounds from Garcinia Species Native to China Reveals Novel Compounds Targeting the STAT/JAK Signaling Pathway” (BioMed Research International, 2015)",
  "data": [
    {"system": "A498", "assay": "Cell panel screen (CellTiter-Glo)", "format": "cell-based, human", "settings": "A498 (listed under Lung), 20 micromolar, 72 hrs", "method": "(§1) All cells were obtained from the cell bank of the American Type Culture Collection (ATCC) and cultured in the supplier's recommended media supplemented with 10% FBS. The cell panel screen was measured using the CellTiter-Glo assay (Promega, Madison, WI) following a standard protocol. Briefly, cancer cells were seeded in 96-well plates and cultured overnight at 37°C with or without 5% CO2 in an incubator. Each compound was dissolved with limited DMSO and diluted to a certain concentration with culture medium and then added to the corresponding well of the cell plate. The final concentration of compound was 20 μM. The control cells (without treatment) received the same amount of DMSO and were incubated under the same conditions. After 72 h cultivation, 100 μL of the CellTiter-Glo reagent was added directly to each well for 10-minute incubation. The plate was then read on a FlexStation 3 microplate luminometer (Molecular Devices, USA) to monitor the luminescence signal generated by the luciferase-catalyzed reaction of luciferin and ATP. The percent of growth inhibition was calculated using the following formula: (untreated cells − treated cells)/(untreated cells − background without cells) ∗ 100.", "units": {"Percent Inhibition": "%"}, "values": [
      {"smiles": "CCOC1C2C(=O)c3c(O)c4c(c(CC=C(C)C)c3O[C@@]23[C@H]2C[C@@H]1C(=O)[C@]3(C/C=C(/C)C(=O)O)OC2(C)C)OC(C)(CCC=C(C)C)C=C4", "note": "(stereo partly drawn) [GB19]", "Percent Inhibition": 99}
    ]},
    {"system": "A704", "assay": "Cell panel screen (CellTiter-Glo)", "format": "cell-based, human", "settings": "A704 (Kidney), 20 micromolar, 72 hrs", "method": "as §1", "units": {"Percent Inhibition": "%"}, "values": [
      {"smiles": "CCOC1C2C(=O)c3c(O)c4c(c(CC=C(C)C)c3O[C@@]23[C@H]2C[C@@H]1C(=O)[C@]3(C/C=C(/C)C(=O)O)OC2(C)C)OC(C)(CCC=C(C)C)C=C4", "note": "(stereo partly drawn) [GB19]", "Percent Inhibition": 99}
    ]},
    {"system": "BT-474", "assay": "Cell panel screen (CellTiter-Glo)", "format": "cell-based, human", "settings": "BT-474 (Breast), 20 micromolar, 72 hrs", "method": "as §1", "units": {"Percent Inhibition": "%"}, "values": [
      {"smiles": "CCOC1C2C(=O)c3c(O)c4c(c(CC=C(C)C)c3O[C@@]23[C@H]2C[C@@H]1C(=O)[C@]3(C/C=C(/C)C(=O)O)OC2(C)C)OC(C)(CCC=C(C)C)C=C4", "note": "(stereo partly drawn) [GB19]", "Percent Inhibition": 99}
    ]},
    {"system": "BT-549", "assay": "Cell panel screen (CellTiter-Glo)", "format": "cell-based, human", "settings": "BT-549 (Breast), 20 micromolar, 72 hrs", "method": "as §1", "units": {"Percent Inhibition": "%"}, "values": [
      {"smiles": "CCOC1C2C(=O)c3c(O)c4c(c(CC=C(C)C)c3O[C@@]23[C@H]2C[C@@H]1C(=O)[C@]3(C/C=C(/C)C(=O)O)OC2(C)C)OC(C)(CCC=C(C)C)C=C4", "note": "(stereo partly drawn) [GB19]", "Percent Inhibition": 99}
    ]},
    {"system": "Bel-7402", "assay": "Cell panel screen (CellTiter-Glo)", "format": "cell-based, human", "settings": "Bel-7402 (Liver), 20 micromolar, 72 hrs", "method": "as §1", "units": {"Percent Inhibition": "%"}, "values": [
      {"smiles": "CCOC1C2C(=O)c3c(O)c4c(c(CC=C(C)C)c3O[C@@]23[C@H]2C[C@@H]1C(=O)[C@]3(C/C=C(/C)C(=O)O)OC2(C)C)OC(C)(CCC=C(C)C)C=C4", "note": "(stereo partly drawn) [GB19]", "Percent Inhibition": 99}
    ]},
    {"system": "C3A", "assay": "Cell panel screen (CellTiter-Glo)", "format": "cell-based, human", "settings": "C3A (Liver), 20 micromolar, 72 hrs", "method": "as §1", "units": {"Percent Inhibition": "%"}, "values": [
      {"smiles": "CCOC1C2C(=O)c3c(O)c4c(c(CC=C(C)C)c3O[C@@]23[C@H]2C[C@@H]1C(=O)[C@]3(C/C=C(/C)C(=O)O)OC2(C)C)OC(C)(CCC=C(C)C)C=C4", "note": "(stereo partly drawn) [GB19]", "Percent Inhibition": 99}
    ]},
    {"system": "C8166", "assay": "Cell panel screen (CellTiter-Glo)", "format": "cell-based, human", "settings": "C8166 (Leukemia), 20 micromolar, 72 hrs", "method": "as §1", "units": {"Percent Inhibition": "%"}, "values": [
      {"smiles": "CCOC1C2C(=O)c3c(O)c4c(c(CC=C(C)C)c3O[C@@]23[C@H]2C[C@@H]1C(=O)[C@]3(C/C=C(/C)C(=O)O)OC2(C)C)OC(C)(CCC=C(C)C)C=C4", "note": "(stereo partly drawn) [GB19]", "Percent Inhibition": 99}
    ]},
    {"system": "CCF-STTG1", "assay": "Cell panel screen (CellTiter-Glo)", "format": "cell-based, human", "settings": "CCF-STTG1 (Brain), 20 micromolar, 72 hrs", "method": "as §1", "units": {"Percent Inhibition": "%"}, "values": [
      {"smiles": "CCOC1C2C(=O)c3c(O)c4c(c(CC=C(C)C)c3O[C@@]23[C@H]2C[C@@H]1C(=O)[C@]3(C/C=C(/C)C(=O)O)OC2(C)C)OC(C)(CCC=C(C)C)C=C4", "note": "(stereo partly drawn) [GB19]", "Percent Inhibition": 99}
    ]},
    {"system": "CW-2", "assay": "Cell panel screen (CellTiter-Glo)", "format": "cell-based, human", "settings": "CW-2 (Colon), 20 micromolar, 72 hrs", "method": "as §1", "units": {"Percent Inhibition": "%"}, "values": [
      {"smiles": "CCOC1C2C(=O)c3c(O)c4c(c(CC=C(C)C)c3O[C@@]23[C@H]2C[C@@H]1C(=O)[C@]3(C/C=C(/C)C(=O)O)OC2(C)C)OC(C)(CCC=C(C)C)C=C4", "note": "(stereo partly drawn) [GB19]", "Percent Inhibition": 99}
    ]},
    {"system": "ChaGo-K-1", "assay": "Cell panel screen (CellTiter-Glo)", "format": "cell-based, human", "settings": "ChaGo-K-1 (Lung), 20 micromolar, 72 hrs", "method": "as §1", "units": {"Percent Inhibition": "%"}, "values": [
      {"smiles": "CCOC1C2C(=O)c3c(O)c4c(c(CC=C(C)C)c3O[C@@]23[C@H]2C[C@@H]1C(=O)[C@]3(C/C=C(/C)C(=O)O)OC2(C)C)OC(C)(CCC=C(C)C)C=C4", "note": "(stereo partly drawn) [GB19]", "Percent Inhibition": 99}
    ]},
    {"system": "Colo 205", "assay": "Cell panel screen (CellTiter-Glo)", "format": "cell-based, human", "settings": "Colo 205, 20 micromolar, 72 hrs", "method": "as §1", "units": {"Percent Inhibition": "%"}, "values": [
      {"smiles": "CCOC1C2C(=O)c3c(O)c4c(c(CC=C(C)C)c3O[C@@]23[C@H]2C[C@@H]1C(=O)[C@]3(C/C=C(/C)C(=O)O)OC2(C)C)OC(C)(CCC=C(C)C)C=C4", "note": "(stereo partly drawn) [GB19]", "Percent Inhibition": 99}
    ]},
    {"system": "HCC1395", "assay": "Cell panel screen (CellTiter-Glo)", "format": "cell-based, human", "settings": "HCC1395 (Breast), 20 micromolar, 72 hrs", "method": "as §1", "units": {"Percent Inhibition": "%"}, "values": [
      {"smiles": "CCOC1C2C(=O)c3c(O)c4c(c(CC=C(C)C)c3O[C@@]23[C@H]2C[C@@H]1C(=O)[C@]3(C/C=C(/C)C(=O)O)OC2(C)C)OC(C)(CCC=C(C)C)C=C4", "note": "(stereo partly drawn) [GB19]", "Percent Inhibition": 99}
    ]},
    {"system": "HCC1569", "assay": "Cell panel screen (CellTiter-Glo)", "format": "cell-based, human", "settings": "HCC1569 (Breast), 20 micromolar, 72 hrs", "method": "as §1", "units": {"Percent Inhibition": "%"}, "values": [
      {"smiles": "CCOC1C2C(=O)c3c(O)c4c(c(CC=C(C)C)c3O[C@@]23[C@H]2C[C@@H]1C(=O)[C@]3(C/C=C(/C)C(=O)O)OC2(C)C)OC(C)(CCC=C(C)C)C=C4", "note": "(stereo partly drawn) [GB19]", "Percent Inhibition": 99}
    ]},
    {"system": "HCC1599", "assay": "Cell panel screen (CellTiter-Glo)", "format": "cell-based, human", "settings": "HCC1599 (Breast), 20 micromolar, 72 hrs", "method": "as §1", "units": {"Percent Inhibition": "%"}, "values": [
      {"smiles": "CCOC1C2C(=O)c3c(O)c4c(c(CC=C(C)C)c3O[C@@]23[C@H]2C[C@@H]1C(=O)[C@]3(C/C=C(/C)C(=O)O)OC2(C)C)OC(C)(CCC=C(C)C)C=C4", "note": "(stereo partly drawn) [GB19]", "Percent Inhibition": 99}
    ]},
    {"system": "HCC1937", "assay": "Cell panel screen (CellTiter-Glo)", "format": "cell-based, human", "settings": "HCC1937 (Breast), 20 micromolar, 72 hrs", "method": "as §1", "units": {"Percent Inhibition": "%"}, "values": [
      {"smiles": "CCOC1C2C(=O)c3c(O)c4c(c(CC=C(C)C)c3O[C@@]23[C@H]2C[C@@H]1C(=O)[C@]3(C/C=C(/C)C(=O)O)OC2(C)C)OC(C)(CCC=C(C)C)C=C4", "note": "(stereo partly drawn) [GB19]", "Percent Inhibition": 99}
    ]},
    {"system": "HEC-1-A", "assay": "Cell panel screen (CellTiter-Glo)", "format": "cell-based, human", "settings": "HEC-1-A (Uterus), 20 micromolar, 72 hrs", "method": "as §1", "units": {"Percent Inhibition": "%"}, "values": [
      {"smiles": "CCOC1C2C(=O)c3c(O)c4c(c(CC=C(C)C)c3O[C@@]23[C@H]2C[C@@H]1C(=O)[C@]3(C/C=C(/C)C(=O)O)OC2(C)C)OC(C)(CCC=C(C)C)C=C4", "note": "(stereo partly drawn) [GB19]", "Percent Inhibition": 99}
    ]},
    {"system": "HGC-27", "assay": "Cell panel screen (CellTiter-Glo)", "format": "cell-based, human", "settings": "HGC-27 (Stomach), 20 micromolar, 72 hrs", "method": "as §1", "units": {"Percent Inhibition": "%"}, "values": [
      {"smiles": "CCOC1C2C(=O)c3c(O)c4c(c(CC=C(C)C)c3O[C@@]23[C@H]2C[C@@H]1C(=O)[C@]3(C/C=C(/C)C(=O)O)OC2(C)C)OC(C)(CCC=C(C)C)C=C4", "note": "(stereo partly drawn) [GB19]", "Percent Inhibition": 99}
    ]},
    {"system": "HPAF-II", "assay": "Cell panel screen (CellTiter-Glo)", "format": "cell-based, human", "settings": "HPAF-II (Pancreas), 20 micromolar, 72 hrs", "method": "as §1", "units": {"Percent Inhibition": "%"}, "values": [
      {"smiles": "CCOC1C2C(=O)c3c(O)c4c(c(CC=C(C)C)c3O[C@@]23[C@H]2C[C@@H]1C(=O)[C@]3(C/C=C(/C)C(=O)O)OC2(C)C)OC(C)(CCC=C(C)C)C=C4", "note": "(stereo partly drawn) [GB19]", "Percent Inhibition": 98}
    ]}
  ]
}
